In US8465736B2, “Glutadon” (priority 2006, dated 2013):
Entries after “also recorded” stand apart in the source; their conditions may differ.

How the values were obtained:
advanced carcinomas = assay: Phase I/IIa clinical study (GlutaDON): stabilization/progression by RECIST criteria; type: in vivo, human; settings: for Progression (share of patients) / Stabilization (share of patients): Total
Procedure: In a phase I/IIa clinical study (GlutaDON®), altogether 58 patients with advanced carcinomas were treated with the combination of the two active ingredients described herein. The patients received PEG-PGA in a dosage of 120 IU/m^2 twice a week by the intravenous route, the infusion lasting 15 minutes. The administration of PEG-PGA was followed after 2-4 hours by the intravenous application of DON in a concentration of 5-185 mg/m^2. The duration of the infusion was again 15 minutes. […] According to the internationally accepted RECIST criteria, the term “stabilization” means that the increase in the measurable tumor diameters was less than 20% six weeks or more after the screening, i.e. after the staging of the tumor before the first treatment. According to the internationally accepted RECIST criteria, the term “progression” means that a growth of more than 20%, or a subjective progression, or new lesions were observed within six weeks.

[1] = dosages of up to 600 mg/m^2 twice a week; cited from earlier work
[2] = GlutaDON study: side effects (nausea and vomiting); type: in vivo, human; settings: DON up to 185 mg/m^2 in combination with PEG-PGA 120 IU/m^2 twice a week
Procedure: In a phase I/IIa clinical study (GlutaDON®), altogether 58 patients with advanced carcinomas were treated with the combination of the two active ingredients described herein. The patients received PEG-PGA in a dosage of 120 IU/m^2 twice a week by the intravenous route, the infusion lasting 15 minutes. The administration of PEG-PGA was followed after 2-4 hours by the intravenous application of DON in a concentration of 5-185 mg/m^2. The duration of the infusion was again 15 minutes.

[3] = Colon, high DON dosage 105-185 mg/m^2, with PEG-PGA 120 IU/m^2
[4] = Colon, low DON dosage 5-80 mg/m^2, with PEG-PGA 120 IU/m^2
[5] = Kidney, high DON dosage 105-185 mg/m^2 i.v., after PEG-PGA 120 IU/m^2 twice a week
[6] = Kidney, low DON dosage 5-80 mg/m^2 i.v., after PEG-PGA 120 IU/m^2 twice a week
[7] = Other indications, high DON dosage 105-185 mg/m^2, with PEG-PGA 120 IU/m^2
[8] = Other indications, low DON dosage 5-80 mg/m^2, with PEG-PGA 120 IU/m^2
[9] = Ovary, high DON dosage 105-185 mg/m^2, with PEG-PGA 120 IU/m^2
[10] = Ovary, low DON dosage 5-80 mg/m^2, with PEG-PGA 120 IU/m^2
[11] = Prostate, high DON dosage 105-185 mg/m^2, with PEG-PGA 120 IU/m^2
[12] = Prostate, low DON dosage 5-80 mg/m^2, with PEG-PGA 120 IU/m^2
[13] = Total (10 patients), high DON dosage 105-185 mg/m^2, with PEG-PGA 120 IU/m^2
[14] = Total (36 patients), low DON dosage 5-80 mg/m^2, with PEG-PGA 120 IU/m^2
[15] = high DON dosage 105-185 mg/m^2, with PEG-PGA 120 IU/m^2
[16] = low DON dosage 5-80 mg/m^2, with PEG-PGA 120 IU/m^2

**Q.** With [N-]=[N+]=CC(=O)CC[C@H](N)C(=O)O [DON, 6-diazo-5-oxo-L-norleucine] as the compound, how does the “Progression (number of patients)” value (advanced carcinomas; [3]) read?
**A.** 1 patients

**Q.** What about the “Stabilization (number of patients)” value (advanced carcinomas; [3]) of the same compound?
**A.** 0 patients

**Q.** What about the “Progression (number of patients)” value (advanced carcinomas; [4]) of the same compound?
**A.** 4 patients

**Q.** And the “Stabilization (number of patients)” value (advanced carcinomas; [4])?
**A.** 2 patients

**Q.** What about the “Progression (number of patients)” value (advanced carcinomas; [5]) of the same compound?
**A.** 0 patients

**Q.** And the “Stabilization (number of patients)” value (advanced carcinomas; [5])?
**A.** 4 patients

**Q.** What about the “Progression (number of patients)” value (advanced carcinomas; [6]) of the same compound?
**A.** 4 patients

**Q.** And the “Stabilization (number of patients)” value (advanced carcinomas; [6])?
**A.** 5 patients

**Q.** And the “Progression (number of patients)” value (advanced carcinomas; [7])?
**A.** 1 patients

**Q.** And the “Stabilization (number of patients)” value (advanced carcinomas; [7])?
**A.** 0 patients

**Q.** What about the “Progression (number of patients)” value (advanced carcinomas; [8]) of the same compound?
**A.** 10 patients

**Q.** And the “Stabilization (number of patients)” value (advanced carcinomas; [8])?
**A.** 4 patients

**Q.** What about the “Progression (number of patients)” value (advanced carcinomas; [9]) of the same compound?
**A.** 0 patients

**Q.** And the “Stabilization (number of patients)” value (advanced carcinomas; [9])?
**A.** 1 patients

**Q.** And the “Progression (number of patients)” value (advanced carcinomas; [10])?
**A.** 4 patients

**Q.** What about the “Stabilization (number of patients)” value (advanced carcinomas; [10]) of the same compound?
**A.** 1 patients

**Q.** And the “Progression (number of patients)” value (advanced carcinomas; [11])?
**A.** 1 patients

**Q.** What about the “Stabilization (number of patients)” value (advanced carcinomas; [11]) of the same compound?
**A.** 2 patients

**Q.** What about the “Progression (number of patients)” value (advanced carcinomas; [12]) of the same compound?
**A.** 1 patients

**Q.** And the “Stabilization (number of patients)” value (advanced carcinomas; [12])?
**A.** 1 patients

**Q.** What about the “Progression (number of patients)” value (advanced carcinomas; [13]) of the same compound?
**A.** 3 patients

**Q.** And the “Stabilization (number of patients)” value (advanced carcinomas; [13])?
**A.** 7 patients

**Q.** And the “Progression (number of patients)” value (advanced carcinomas; [14])?
**A.** 23 patients

**Q.** What about the “Stabilization (number of patients)” value (advanced carcinomas; [14]) of the same compound?
**A.** 13 patients

**Q.** And the “Progression (share of patients)” value (advanced carcinomas; [15])?
**A.** 30%

**Q.** What about the “Stabilization (share of patients)” value (advanced carcinomas; [15]) of the same compound?
**A.** 70%

**Q.** And the “Progression (share of patients)” value (advanced carcinomas; [16])?
**A.** 64%

**Q.** And the “Stabilization (share of patients)” value (advanced carcinomas; [16])?
**A.** 36%

**Q.** And the “Action of DON used by itself” value [1]?
**A.** very modest action

**Q.** And the “Nausea and vomiting with DON used by itself” value [1]?
**A.** dosage-limiting side effects

**Q.** And the “Nausea and vomiting as dose-limiting side effects” value [2]?
**A.** without nausea and vomiting being found to be dosage-limiting side effects; also recorded: not dose-limiting
